Source: PMC12521730, “Quantitative dual-isotope preclinical SPECT/CT imaging and biodistribution of the mercury-197m/g theranostic pair with [^197m/gHg]HgCl2 and a [^197m/gHg]Hg-tetrathiol complex as a platform for radiopharmaceutical development” (EJNMMI Radiopharmacy and Chemistry, 2025)

Experiment: Ex vivo biodistribution (gamma counter)
Type: in vivo, healthy male C57BL/6 mice
Conditions: 2 h post administration
Procedure: For animal injection, the tracer was prepared at high molar activity. Radiolabeling of H4Tetrathiol (10^–2 M in DMSO; 40 μL for imaging, 20 μL for bioD) (or DMSO, for [^197m/gHg]HgCl2 mice) with [^197m/gHg]HgCl2 (imaging: 26.7 MBq total m + g, 62 μL; bioD: 13.04 MBq total m + g, 31 μL) was performed in a mixture of ammonium acetate buffer (1 M; pH 7; 198 μL for imaging or 149 μL for bioD) and 6 M NaOH (72 μL or 38 μL required to achieve a pH of 7.5 after addition of activity, for imaging or BioD labeling, respectively). The reaction was allowed to stand for 1 h at 37 °C and quantitative (> 99%) non-isolated percentage radiochemical yield (%RCY) was confirmed via the iTLC methods mentioned above. Further, 100 µL of the reaction was diluted with 50 µL of PBS Tween-20 (0.01 M sodium phosphate, 0.15 M NaCl, 0.05% Tween-20) for imaging mice, or 50 µL of the reaction was diluted with 100 µL of PBS Tween-20 for BioD mice. The tracers were prepared immediately before injection to avoid radiolysis and minimize the tracer loss to any surfaces due to its lipophilicity. The injected doses of each isomer, ^197mHg and ^197gHg, were quantified by measuring an aliquot of known volume of each tracer preparation via HPGe gamma spectroscopy and decay corrected for time of injection using the Eqs. (1) and (2).
The study was conducted in compliance with the guidelines set by the Canadian Council on Animal Care (CCAC) and approved by the Animal Care Committee (ACC) at the University of British Columbia (A20-0132). A total of eight healthy male C57BL/6 mice weighing approximately 30 g for group 1 and 25 g for group 2 were used in the study. The mice were divided into two experimental groups: group 1 (n = 4) received free [^197m/gHg]HgCl2, while group 2 (n = 4) received [^197m/gHg]Hg-Tetrathiol. Within each group, one mouse was allocated for imaging, while the rest were designated for ex vivo biodistribution analysis. For SPECT imaging, the designated mice were anesthetized using isoflurane via a precision vaporizer. […] Once anesthetized, each imaging mouse received an intravenous (IV) injection via the lateral tail vein of 150 μL of [^197m/gHg]HgCl2 (0.492 MBq ^197mHg + 3.171 MBq ^197gHg) or [^197m/gHg]Hg-Tetrathiol (0.899 MBq ^197mHg + 4.230 MBq ^197gHg) in PBS Tween-20 (0.01 M Na Phosphate, 0.15 M NaCl, 0.05% Tween-20).
Mice received an IV injection of [^197m/gHg]HgCl2 (0.275 MBq ^197mHg + 1.758 MBq ^197gHg, 150 μL) or [^197m/gHg]Hg-Tetrathiol (0.384 MBq ^197mHg + 1.733 MBq ^197gHg, 150 μL) (n = 3 per group) via the lateral tail vein using a Tailveiner restrainer. After the injection, the mice were returned to their experimental cages and allowed unrestricted movement. Biodistribution studies were conducted 2 h after administration. Mice were humanely euthanized with an overdose of isoflurane followed by cardiac puncture to collect blood pool activity. The organs of interest were fully extracted, cleaned of blood without rinsing, weighed, and analysed for radioactivity using a calibrated gamma counter with the 55–93 keV energy window for ^197gHg and the 110–160 keV energy window for ^197mHg (Packard Cobra II, Perkin Elmer, Waltham, MA, USA). The stomach and intestines were carefully cleaned prior to analysis to remove residual contents. For tissues and fluids that could not be fully removed (muscle, blood and bone) activity values were extrapolated based on standardised organ weights for age- and sex-matched mice tables to ensure accurate normalization (Davies and Morris [1993]; Foster et al. [2014]). The stomach and whole intestines were cleaned before analysis. The radioactivity measurements were decay corrected for time of injection using the Eqs. (1) and (2). The results are reported as the percentage of the injected activity per gram of tissue (%IA/g) and percentage of the injected activity per tissue (%IA/organ).

Q: What does the source list for `O=C(CC[S-])OCC(COC(=O)CC[S-])(COC(=O)CC[S-])COC(=O)CC[S-].[Hg+2]` [[^197m/gHg]Hg-Tetrathiol]?
A: Animal 4 (%IA/g) g: heart (Hg-197g): 0.72 %IA/g; Animal 4 (%IA/g) g: kidneys (Hg-197g): 2.58 %IA/g; Animal 4 (%IA/g) g: large intestine (Hg-197g): 0.04 %IA/g; Animal 4 (%IA/g) g: liver (Hg-197g): 460.16 %IA/g; Animal 4 (%IA/g) g: lungs (Hg-197g): 6.68 %IA/g; Animal 4 (%IA/g) g: muscle (Hg-197g): 0.02 %IA/g; Animal 4 (%IA/g) g: pancreas (Hg-197g): 0.05 %IA/g; Animal 4 (%IA/g) g: small intestine (Hg-197g): 0.13 %IA/g; Animal 4 (%IA/g) g: spleen (Hg-197g): 73.76 %IA/g; Animal 4 (%IA/g) g: stomach (Hg-197g): 0.12 %IA/g; Animal 4 (%IA/g) g: tail (Hg-197g): 5.66 %IA/g; Animal 4 (%IA/g) g: urine (Hg-197g): 0.03 %IA/g; Average (%IA/Organ): bladder (Hg-197g): 0.00 %IA/Organ; Average (%IA/Organ): blood (Hg-197g): 0.16 %IA/Organ; Average (%IA/Organ): bone (Hg-197g): 2.70 %IA/Organ; Average (%IA/Organ): brain (Hg-197g): 0.01 %IA/Organ; Average (%IA/Organ): feces (Hg-197g): 0.00 %IA/Organ; Average (%IA/Organ): heart (Hg-197g): 0.09 %IA/Organ; Average (%IA/Organ): kidneys (Hg-197g): 1.13 %IA/Organ; Average (%IA/Organ): large intestine (Hg-197g): 0.02 %IA/Organ; Average (%IA/Organ): lungs (Hg-197g): 0.97 %IA/Organ; Average (%IA/Organ): muscle (Hg-197g): 0.19 %IA/Organ; Average (%IA/Organ): pancreas (Hg-197g): 0.01 %IA/Organ; Average (%IA/Organ): small intestine (Hg-197g): 0.02 %IA/Organ; Average (%IA/Organ): spleen (Hg-197g): 4.17 %IA/Organ; Average (%IA/Organ): stomach (Hg-197g): 0.04 %IA/Organ; Average (%IA/Organ): tail (Hg-197g): 1.05 %IA/Organ; Average (%IA/Organ): urine (Hg-197g): 0.00 %IA/Organ; Average Hg-197g (%IA/g): bladder (Hg-197g): 0.049 %IA/g; Average Hg-197g (%IA/g): blood (Hg-197g): 0.11 %IA/g; Average Hg-197g (%IA/g): bone (Hg-197g): 1.42 %IA/g; Average Hg-197g (%IA/g): brain (Hg-197g): 0.025 %IA/g; Average Hg-197g (%IA/g): feces (Hg-197g): 0.023 %IA/g; Average Hg-197g (%IA/g): heart (Hg-197g): 0.71 %IA/g; Average Hg-197g (%IA/g): kidneys (Hg-197g): 2.96 %IA/g; Average Hg-197g (%IA/g): large intestine (Hg-197g): 0.079 %IA/g; Average Hg-197g (%IA/g): liver (Hg-197g): 202.37 %IA/g; Average Hg-197g (%IA/g): lungs (Hg-197g): 7.10 %IA/g; Average Hg-197g (%IA/g): muscle (Hg-197g): 0.017 %IA/g; Average Hg-197g (%IA/g): pancreas (Hg-197g): 0.058 %IA/g; Average Hg-197g (%IA/g): small intestine (Hg-197g): 0.11 %IA/g; Average Hg-197g (%IA/g): spleen (Hg-197g): 64.43 %IA/g; Average Hg-197g (%IA/g): stomach (Hg-197g): 0.37 %IA/g; Average Hg-197g (%IA/g): tail (Hg-197g): 2.18 %IA/g; Average Hg-197g (%IA/g): urine (Hg-197g): 0.029 %IA/g; Animal 1 (%IA/g) m: bladder (Hg-197m): 0.05 %IA/g; Animal 1 (%IA/g) m: blood (Hg-197m): 0.10 %IA/g; Animal 1 (%IA/g) m: bone (Hg-197m): 2.09 %IA/g; Animal 1 (%IA/g) m: brain (Hg-197m): 0.04 %IA/g; Animal 1 (%IA/g) m: feces (Hg-197m): 0.04 %IA/g; Animal 1 (%IA/g) m: heart (Hg-197m): 0.47 %IA/g; Animal 1 (%IA/g) m: kidneys (Hg-197m): 5.53 %IA/g; Animal 1 (%IA/g) m: large intestine (Hg-197m): 0.14 %IA/g; Animal 1 (%IA/g) m: lungs (Hg-197m): 9.10 %IA/g; Animal 1 (%IA/g) m: muscle (Hg-197m): 0.01 %IA/g; Animal 1 (%IA/g) m: pancreas (Hg-197m): 0.06 %IA/g; Animal 1 (%IA/g) m: small intestine (Hg-197m): 0.16 %IA/g; Animal 1 (%IA/g) m: spleen (Hg-197m): 74.83 %IA/g; Animal 1 (%IA/g) m: stomach (Hg-197m): 0.19 %IA/g; Animal 1 (%IA/g) m: tail (Hg-197m): 1.72 %IA/g; Animal 1 (%IA/g) m: urine (Hg-197m): 0.03 %IA/g; Animal 2 (%IA/g) m: bladder (Hg-197m): 0.02 %IA/g; Animal 2 (%IA/g) m: blood (Hg-197m): 0.13 %IA/g; Animal 2 (%IA/g) m: bone (Hg-197m): 1.62 %IA/g; Animal 2 (%IA/g) m: brain (Hg-197m): 0.02 %IA/g; Animal 2 (%IA/g) m: feces (Hg-197m): 0.05 %IA/g; Animal 2 (%IA/g) m: heart (Hg-197m): 0.59 %IA/g; Animal 2 (%IA/g) m: kidneys (Hg-197m): 2.35 %IA/g; Animal 2 (%IA/g) m: large intestine (Hg-197m): 0.05 %IA/g; Animal 2 (%IA/g) m: lungs (Hg-197m): 7.04 %IA/g; Animal 2 (%IA/g) m: muscle (Hg-197m): 0.02 %IA/g; Animal 2 (%IA/g) m: pancreas (Hg-197m): 0.04 %IA/g; Animal 2 (%IA/g) m: small intestine (Hg-197m): 0.08 %IA/g; Animal 2 (%IA/g) m: spleen (Hg-197m): 79.95 %IA/g; Animal 2 (%IA/g) m: stomach (Hg-197m): 0.37 %IA/g; Animal 2 (%IA/g) m: tail (Hg-197m): 1.39 %IA/g; Animal 2 (%IA/g) m: urine (Hg-197m): 0.03 %IA/g; Animal 3 (%IA/g) m: bladder (Hg-197m): 0.04 %IA/g; Animal 3 (%IA/g) m: blood (Hg-197m): 0.15 %IA/g; Animal 3 (%IA/g) m: bone (Hg-197m): 1.38 %IA/g; Animal 3 (%IA/g) m: brain (Hg-197m): 0.04 %IA/g; Animal 3 (%IA/g) m: feces (Hg-197m): 0.01 %IA/g; Animal 3 (%IA/g) m: heart (Hg-197m): 0.70 %IA/g; Animal 3 (%IA/g) m: kidneys (Hg-197m): 3.71 %IA/g; Animal 3 (%IA/g) m: large intestine (Hg-197m): 0.12 %IA/g; Animal 3 (%IA/g) m: lungs (Hg-197m): 9.69 %IA/g; Animal 3 (%IA/g) m: muscle (Hg-197m): 0.02 %IA/g; Animal 3 (%IA/g) m: pancreas (Hg-197m): 0.09 %IA/g; Animal 3 (%IA/g) m: small intestine (Hg-197m): 0.10 %IA/g; Animal 3 (%IA/g) m: spleen (Hg-197m): 108.27 %IA/g; Animal 3 (%IA/g) m: stomach (Hg-197m): 1.02 %IA/g; Animal 3 (%IA/g) m: tail (Hg-197m): 0.66 %IA/g; Animal 3 (%IA/g) m: urine (Hg-197m): 0.03 %IA/g; Animal 4 (%IA/g) m: bladder (Hg-197m): 0.07 %IA/g; Animal 4 (%IA/g) m: blood (Hg-197m): 0.12 %IA/g; Animal 4 (%IA/g) m: bone (Hg-197m): 1.62 %IA/g; Animal 4 (%IA/g) m: brain (Hg-197m): 0.02 %IA/g; Animal 4 (%IA/g) m: feces (Hg-197m): 0.01 %IA/g; Animal 4 (%IA/g) m: heart (Hg-197m): 0.64 %IA/g; Animal 4 (%IA/g) m: kidneys (Hg-197m): 3.03 %IA/g; Animal 4 (%IA/g) m: large intestine (Hg-197m): 0.05 %IA/g; Animal 4 (%IA/g) m: lungs (Hg-197m): 7.69 %IA/g; Animal 4 (%IA/g) m: muscle (Hg-197m): 0.02 %IA/g; Animal 4 (%IA/g) m: pancreas (Hg-197m): 0.05 %IA/g; Animal 4 (%IA/g) m: small intestine (Hg-197m): 0.15 %IA/g; Animal 4 (%IA/g) m: spleen (Hg-197m): 101.18 %IA/g; Animal 4 (%IA/g) m: stomach (Hg-197m): 0.12 %IA/g; Animal 4 (%IA/g) m: tail (Hg-197m): 7.32 %IA/g; Animal 4 (%IA/g) m: urine (Hg-197m): 0.04 %IA/g; Average Hg-197m (%IA/g): bladder (Hg-197m): 0.044 %IA/g; Average Hg-197m (%IA/g): blood (Hg-197m): 0.13 %IA/g; Average Hg-197m (%IA/g): bone (Hg-197m): 1.68 %IA/g; Average Hg-197m (%IA/g): brain (Hg-197m): 0.028 %IA/g; Average Hg-197m (%IA/g): feces (Hg-197m): 0.026 %IA/g; Average Hg-197m (%IA/g): heart (Hg-197m): 0.60 %IA/g; Average Hg-197m (%IA/g): kidneys (Hg-197m): 3.65 %IA/g; Average Hg-197m (%IA/g): large intestine (Hg-197m): 0.091 %IA/g; Average Hg-197m (%IA/g): lungs (Hg-197m): 8.38 %IA/g; Average Hg-197m (%IA/g): muscle (Hg-197m): 0.017 %IA/g; Average Hg-197m (%IA/g): pancreas (Hg-197m): 0.056 %IA/g; Average Hg-197m (%IA/g): small intestine (Hg-197m): 0.12 %IA/g; Average Hg-197m (%IA/g): spleen (Hg-197m): 91.06 %IA/g; Average Hg-197m (%IA/g): stomach (Hg-197m): 0.42 %IA/g; Average Hg-197m (%IA/g): tail (Hg-197m): 2.77 %IA/g; Average Hg-197m (%IA/g): urine (Hg-197m): 0.033 %IA/g
